Assay results: patent US20050250677A1, “Glycopeptide antibiotic derivatives” (priority 2002, published 2005)
Read-outs that look alike come from different tables or passages of the source.

Assays:
Assay type in all cases: cell-based
HIV-1 (IIIB) = assay: Inhibition of HIV-1 (IIIB)-induced cytopathicity (giant cell formation) in CEM cells
Experimental: (§1) A variety of glycopeptide antibiotic derivatives of vancomycin, eremomycin and teicoplanin including their aglycon derivatives were evaluated for their inhibitory activity against HIV-1 (IIIB) and HIV-2(ROD) in CEM cell cultures.

HIV-2(ROD) = assay: Inhibition of HIV-2 (ROD)-induced cytopathicity (giant cell formation) in CEM cells; conditions: read-out: EC50 HIV-2 (concentration required to inhibit HIV-induced giant cell formation by 50%); HIV-2, CEM cell cultures
Experimental: as §1

[1] = system: human lymphocyte Molt4/clone 8; assay: Cytostatic activity assay, Molt4/clone 8 cells; conditions: read-out: IC50 Molt4/C8 (compound concentration required to inhibit tumor cell proliferation by 50%)
human lymphocyte CEM = assay: Cytostatic activity assay, CEM cells; conditions: read-out: IC50 CEM (compound concentration required to inhibit tumor cell proliferation by 50%)
murine leukemia L1210 = assay: Cytostatic activity assay, L1210 cells; conditions: read-out: IC50 L1210 (compound concentration required to inhibit tumor cell proliferation by 50%)
[2] = read-out: EC50 HIV-1 (concentration required to inhibit HIV-induced giant cell formation by 50%), HIV-1, CEM cell cultures

Compound | EC50 (HIV-1 (IIIB); [2]) [µM] | EC50 (HIV-2(ROD)) [µM] | IC50 [1] [µM] | IC50 (human lymphocyte CEM) [µM] | IC50 (murine leukemia L1210) [µM] | EC50 (HIV-1 (IIIB); HIV-1 (IIIB), CEM cell cultures, read-out: EC50 against HIV-1) [µM]
CCCCCCCCCC[N+](C)(C)CCCNCc1c(O)cc2c(c1O)-c1cc(ccc1O)C1NC(=O)C3NC(=O)C4NC(=O)C(Cc5ccc(c(Cl)c5)Oc5cc3cc(c5O)Oc3ccc(cc3Cl)C(O)C(NC1=O)C(=O)NC2C(=O)NCCCN(C)C)NC(=O)C(N)c1ccc(O)c(c1)Oc1cc(O)cc4c1 (stereo not drawn) [Compound 34] | 2.7 ± 1.84 | 4.5 ± 0.7 | 68 ± 1 | 50 ± 8 | 23 ± 11 | 
CCCCCCCCCC[N+]1(C)CCN(Cc2c(O)cc3c(c2O)-c2cc(ccc2O)C2NC(=O)C4NC(=O)C5NC(=O)C(Cc6ccc(c(Cl)c6)Oc6cc4cc(c6O)Oc4ccc(cc4Cl)C(O)C(NC2=O)C(=O)NC3C(=O)NCCCN(C)C)NC(=O)C(N)c2ccc(O)c(c2)Oc2cc(O)cc5c2)CC1 (stereo not drawn) [Compound 38] | 2.1 ± 0.92 | 10 | 91 ± 13 | > 100 | 51 ± 9 | 
CCCCc1ccc(CNCc2c(O)cc3c(c2O)-c2cc(ccc2O)C2NC(=O)C4NC(=O)C5NC(=O)C(Cc6ccc(c(Cl)c6)Oc6cc4cc(c6O)Oc4ccc(cc4Cl)C(O)C(NC2=O)C(=O)NC3C(=O)NC)NC(=O)C(N)c2ccc(O)c(c2)Oc2cc(O)cc5c2)cc1 (stereo not drawn) [Compound 48] | 9.7 ± 9 | 12.3 ± 6.8 | > 100 | > 100 | > 100 | 
O=C(NC1C(=O)NC2Cc3ccc(c(Cl)c3)Oc3cc4cc(c3O)Oc3ccc(cc3Cl)C(O)C3NC(=O)C(NC(=O)C4NC(=O)C(NC2=O)c2cc(O)cc(c2)Oc2cc1ccc2O)c1ccc(O)c(c1)-c1c(O)cc(O)cc1C(C(=O)O)NC3=O)OC12CC3CC(CC(C3)C1)C2 (stereo not drawn) [Compound 49] | 13 ± 9.9 | 6 ± 1.4 | 25 ± 0.99 | 104 ± 3 | 22 ± 0.1 | 
CCCCOc1ccc(CNC2C(Oc3c4cc5cc3Oc3ccc(cc3Cl)C(O)C3NC(=O)C(NC(=O)C5NC(=O)C5NC(=O)C(Cc6ccc(cc6)O4)NC(=O)C(N(C)Cc4ccc(OCCCC)cc4)c4ccc(O)c(c4)Oc4cc(O)c(Cl)c5c4)c4ccc(O)c(c4)-c4c(O)cc(O)cc4C(C(=O)NCCCN(C)C)NC3=O)OC(C(=O)NCCCN(C)C)C(O)C2O)cc1 (stereo not drawn) [Compound 11] | 5 ± 0.7 | > 10 | 18 ± 2.5 | 80 ± 6 | 20 ± 7.5 | 
CNC(CC(C)C)C(=O)NC1C(=O)NC(CC(N)=O)C(=O)NC2C(=O)NC3C(=O)NC(C(=O)NC(C(=O)O)c4cc(O)cc(O)c4-c4cc3ccc4O)C(O)c3ccc(cc3)Oc3cc2cc(c3O)Oc2ccc(cc2Cl)C1O (stereo not drawn) [Eremomycin aglycon] | 50 ± 28 | 250 | > 500 | > 500 | > 500 | 
CCCCCCCCCC[N+](C)(C)CCCNCc1c(O)cc2c(c1O)-c1cc(ccc1O)C1NC(=O)C3NC(=O)C4NC(=O)C(Cc5ccc(cc5)Oc5cc3cc(c5OC3OC(C(=O)NCCCN(C)C)C(O)C(O)C3N)Oc3ccc(cc3Cl)C(O)C(NC1=O)C(=O)NC2C(=O)NCCCN(C)C)NC(=O)C(NC)c1ccc(O)c(c1)Oc1cc(O)c(Cl)c4c1 (stereo not drawn) [Compound 14] | 3.5 ± 0.7 | ≥ 20 | 22 ± 4.7 | 92 ± 5 | 27 ± 0.3 | 
CCCCCCCCCC[N+](C)(C)CCCNCc1c(O)cc2c(c1O)-c1cc(ccc1O)C1NC(=O)C3NC(=O)C4NC(=O)C(Cc5ccc(c(Cl)c5)Oc5cc3cc(c5O)Oc3ccc(cc3Cl)C(O)C(NC1=O)C(=O)NC2C(=O)NCCCCCCN)NC(=O)C(N)c1ccc(O)c(c1)Oc1cc(O)cc4c1 (stereo not drawn) [Compound 42] | 1.8 ± 0.49 | 7 | 72 ± 6 | 66 ± 2 | 38 ± 1 | 
C[N+](C)(C)CCCNC(=O)C1NC(=O)C2NC(=O)C(NC(=O)C3NC(=O)C4NC(=O)C(Cc5ccc(c(Cl)c5)Oc5cc3cc(c5O)Oc3ccc(cc3Cl)C2O)NC(=O)C(N)c2ccc(O)c(c2)Oc2cc(O)cc4c2)c2ccc(O)c(c2)-c2c1cc(O)c(CN1CCN(Cc3ccc(-c4ccccc4)cc3)CC1)c2O (stereo not drawn) [Compound 29] | 4.5 ± 0.7 | 22 ± 3.5 | 35 ± 8.2 | > 250 | 26 ± 8.1 | 
CCCCc1ccc(CNC2C(Oc3c4cc5cc3Oc3ccc(cc3Cl)C(O)C3NC(=O)C(NC(=O)C5NC(=O)C5NC(=O)C(Cc6ccc(cc6)O4)NC(=O)C(NC)c4ccc(O)c(c4)Oc4cc(O)c(Cl)c5c4)c4ccc(O)c(c4)-c4c(O)cc(O)cc4C(C(=O)NCCCN(C)C)NC3=O)OC(C(=O)NCCCN(C)C)C(O)C2O)cc1 (stereo not drawn) [Compound 12] | 12 ± 3.5 | > 50 | 66 ± 20 | > 250 | 36 ± 14 | 
CCCCCCCCCCNC(=O)C(N)CCCCNC(=O)C1NC(=O)C2NC(=O)C(NC(=O)C3NC(=O)C4NC(=O)C(Cc5ccc(c(Cl)c5)Oc5cc3cc(c5O)Oc3ccc(cc3Cl)C2O)NC(=O)C(N)c2ccc(O)c(c2)Oc2cc(O)cc4c2)c2ccc(O)c(c2)-c2c(O)cc(O)cc21 (stereo not drawn) [Compound 23] | 2.6 ± 2 | 5.5 ± 0.7 | 22 ± 22 | 58 ± 35 | 5.7 ± 0.27 | 
CNC1C(=O)NC2Cc3ccc(cc3)Oc3cc4cc(c3OC3OC(C(=O)NCCC[N+](C)(C)Cc5ccc(-c6ccccc6)cc5)C(O)C(O)C3N)Oc3ccc(cc3Cl)C(O)C3NC(=O)C(NC(=O)C4NC(=O)C(NC2=O)c2cc(cc(O)c2Cl)Oc2cc1ccc2O)c1ccc(O)c(c1)-c1c(OC2OC(CO)C(O)C(O)C2O)cc(O)cc1C(C(=O)NCCC[N+](C)(C)Cc1ccc(-c2ccccc2)cc1)NC3=O (stereo not drawn) [Compound 10] | 4 ± 1.4 | > 10 | 27 ± 14 | 32 ± 5 | 44 ± 2.9 | 
CCCCCCCCCC[N+](C)(C)CCCNC(=O)C1NC(=O)C2NC(=O)C(NC(=O)C3NC(=O)C(CC(N)=O)NC(=O)C(NC(=O)C(CC(C)C)NC)C(O)c4ccc(c(Cl)c4)Oc4cc3cc(c4OC3OC(CO)C(O)C(O)C3OC3CC(C)(N)C(O)C(C)O3)Oc3ccc(cc3Cl)C2O)c2ccc(O)c(c2)-c2c(O)cc(O)cc21 (stereo not drawn) [Compound 2] | 5.5 ± 0.7 | > 50 | 53 ± 1 | 172 ± 15 | 60 ± 8 | 12
C[C@@H](NC(=O)[C@@H](C)NC(=O)CCCCCNC(=O)C1NC(=O)C2NC(=O)C(NC(=O)C3NC(=O)C4NC(=O)C(Cc5ccc(c(Cl)c5)Oc5cc3cc(c5O)Oc3ccc(cc3Cl)C2O)NC(=O)C(NC(=O)OC(C)(C)C)c2ccc(O)c(c2)Oc2cc(O)cc4c2)c2ccc(O)c(c2)-c2c(O)cc(O)cc21)C(=O)O (stereo partly drawn) [Compound 44] | 12.5 ± 3.5 | 25 ± 7 | > 500 | > 500 | > 500 | 
NCCCCCCCCCCNC(=O)C1NC(=O)C2NC(=O)C(NC(=O)C3NC(=O)C4NC(=O)C(Cc5ccc(c(Cl)c5)Oc5cc3cc(c5O)Oc3ccc(cc3Cl)C2O)NC(=O)C(N)c2ccc(O)c(c2)Oc2cc(O)cc4c2)c2ccc(O)c(c2)-c2c(O)cc(O)cc21 (stereo not drawn) [Compound 43] | 6.5 ± 0.7 | 12.5 ± 3.5 | 225 ± 8 | 402 ± 138 | ≥ 500 | 
CCCCCCCCCC[N+](C)(C)CCCNCc1c(O)cc2c(c1O)-c1cc(ccc1O)C1NC(=O)C3NC(=O)C(CC(N)=O)NC(=O)C(NC(=O)C(CC(C)C)NC)C(O)c4ccc(c(Cl)c4)Oc4cc3cc(c4OC3OC(CO)C(O)C(O)C3OC3CC(C)(N)C(O)C(C)O3)Oc3ccc(cc3)C(OC3CC(C)(N)C(O)C(C)O3)C(NC1=O)C(=O)NC2C(=O)NCCCN(C)C (stereo not drawn) [Compound 4] | 7 | > 20 | 33 ± 5 | 27 ± 7 | 16 ± 6 | 
CN[C@H](CC(C)C)C(=O)N[C@H]1C(=O)N[C@@H](CC(N)=O)C(=O)N[C@H]2C(=O)N[C@H]3C(=O)N[C@H](C(=O)N[C@H](C(=O)O)c4cc(O)cc(O)c4-c4cc3ccc4O)[C@H](O)c3ccc(c(Cl)c3)Oc3cc2cc(c3O)Oc2ccc(cc2Cl)[C@H]1O [Vancomycin aglycon] | 65 ± 7.1 | 250 | > 500 | > 500 | > 500 | 
CNCc1c(O)cc2c(c1O)-c1cc(ccc1O)C1NC(=O)C3NC(=O)C4NC(=O)C(Cc5ccc(c(Cl)c5)Oc5cc3cc(c5O)Oc3ccc(cc3Cl)C(O)C(NC1=O)C(=O)NC2C(=O)NC)NC(=O)C(N)c1ccc(O)c(c1)Oc1cc(O)cc4c1 (stereo not drawn) [Compound 45] | 15 ± 7.1 | 17.5 ± 10.6 | > 500 | > 500 | > 500 | 
Teicoplanin [reference compound] | 18 ± 3.5 | 100 | > 500 | > 500 | > 500 | 
